# Reference: patent US20260000637A1, “METHOD OF IMPROVING SLEEP” (VANDA PHARMACEUTICALS INC., priority 2019, published 2026)
# Several values for one entry are separate records, joined by “and”; a condition that tells them apart may be missing. Equal entries are not always repeated.
# Key:
# [1] = test system: individuals diagnosed with DSWPD and having at least one copy of the rs184039278 CRY1 allele; assay: Sleep parameters after 20 mg tasimelteon before bedtime, by rs184039278 CRY1 genotype; format: in vivo, human
# Description: In a study of genetic variations associated with sleep-wake patterns, Applicant found a significant association between the rs184039278 CRY1 allele and efficacy of treatment with tasimelteon. […] Both groups were treated with 20 mg of tasimelteon before bed.
# [2] = test system: totally blind patients with Non-24; settings: cited from earlier work
# [3] = individual DSWPD patients, rs184039278 CRY1 G/T, 20 mg tasimelteon prior to bedtime
compound,measurement,setting,value
"CCC(=O)NC[C@@H]1C[C@H]1c1cccc2c1CCO2 [tasimelteon, Tasimelteon]","total sleep time (TST), WT versus MT individuals (FIG. 1)","[1]; WT (no rs184039278 CRY1 allele) compared to MT (at least one copy), both 20 mg tasimelteon before bed",both lower and more variable than for MT individuals
same,Total Sleep Time In First Two-Thirds Of Night,[1]; [3],308 min and 293.5 min
same,percentage of total sleep time (sleep efficiency),[1]; [3],96 and 91
same,"sleep parameters (LPS, sleep efficiency, REM sleep duration, TST, WASO)","[1]; individuals having at least one copy of the rs184039278 CRY1 allele, tasimelteon before bedtime",improvements in one or more sleep parameters
same,efficacy on circadian timing system and sleep,[2],phase advance the circadian timing system (CTS) and to improve nighttime sleep and decrease daytime sleep
